Tests used:
ovine COX-1 = biological target: T1, ovine COX-1 (Ovis aries, UniProt P05979); assay: COX-1 purified enzyme assay (Cayman Chemical kit, PGH2 production detected as PGF2α by EIA); format: biochemical; settings: purified ovine COX-1; read-out: IC50 for inhibition of COX-1
T1 construct: purchased Cayman Chemical (Ann Arbor, Mich.)
T1 sequence (P05979 25-600): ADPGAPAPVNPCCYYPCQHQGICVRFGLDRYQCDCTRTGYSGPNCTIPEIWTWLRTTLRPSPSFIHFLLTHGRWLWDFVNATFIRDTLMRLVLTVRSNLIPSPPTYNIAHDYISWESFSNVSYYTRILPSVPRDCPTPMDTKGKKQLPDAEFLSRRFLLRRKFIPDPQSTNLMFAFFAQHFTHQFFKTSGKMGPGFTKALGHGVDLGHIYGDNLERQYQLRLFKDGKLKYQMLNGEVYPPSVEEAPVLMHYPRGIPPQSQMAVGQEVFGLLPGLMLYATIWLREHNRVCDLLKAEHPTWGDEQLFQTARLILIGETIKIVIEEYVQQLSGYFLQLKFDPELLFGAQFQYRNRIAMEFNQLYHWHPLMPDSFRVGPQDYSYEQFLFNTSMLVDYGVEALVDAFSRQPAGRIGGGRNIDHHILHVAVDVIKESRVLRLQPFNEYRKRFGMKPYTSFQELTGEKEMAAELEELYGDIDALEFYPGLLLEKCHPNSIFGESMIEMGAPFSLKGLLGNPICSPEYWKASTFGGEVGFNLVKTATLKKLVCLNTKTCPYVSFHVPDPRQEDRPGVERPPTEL
Source text: (§1) Because COX-1 and COX-2 convert arachidonic acid to prostaglandin H2 (PGH2), one can assess COX inhibitory activity of a test compound by measuring the effect of the compound on PGH2 production in the presence of purified COX-1 enzyme and, in a separate assay, in the presence of purified COX-2 enzyme. In this assay, the production of PGH2 can be measured by reducing PGH2 to prostaglandin F2α (PGF2α) with SnCl2 and then detecting PGF2α by enzyme immunoassay (EIA) using a suitable antibody.
Using the methods described above, the inhibition of human COX-2 and ovine COX-1 by desbenzoylindomethacin was measured.

human COX-2 = biological target: T2, human COX-2 (Homo sapiens, UniProt P35354); assay: COX-2 purified enzyme assay (Cayman Chemical kit, PGH2 production detected as PGF2α by EIA); format: biochemical; settings: for COX-2 selectivity (IC50 for COX-1/IC50 for COX-2): ovine COX-1 vs human COX-2, purified enzymes; for IC50: purified human COX-2, read-out: IC50 for inhibition of COX-2
T2 construct: purchased Cayman Chemical (Ann Arbor, Mich.)
T2 sequence (P35354 18-604): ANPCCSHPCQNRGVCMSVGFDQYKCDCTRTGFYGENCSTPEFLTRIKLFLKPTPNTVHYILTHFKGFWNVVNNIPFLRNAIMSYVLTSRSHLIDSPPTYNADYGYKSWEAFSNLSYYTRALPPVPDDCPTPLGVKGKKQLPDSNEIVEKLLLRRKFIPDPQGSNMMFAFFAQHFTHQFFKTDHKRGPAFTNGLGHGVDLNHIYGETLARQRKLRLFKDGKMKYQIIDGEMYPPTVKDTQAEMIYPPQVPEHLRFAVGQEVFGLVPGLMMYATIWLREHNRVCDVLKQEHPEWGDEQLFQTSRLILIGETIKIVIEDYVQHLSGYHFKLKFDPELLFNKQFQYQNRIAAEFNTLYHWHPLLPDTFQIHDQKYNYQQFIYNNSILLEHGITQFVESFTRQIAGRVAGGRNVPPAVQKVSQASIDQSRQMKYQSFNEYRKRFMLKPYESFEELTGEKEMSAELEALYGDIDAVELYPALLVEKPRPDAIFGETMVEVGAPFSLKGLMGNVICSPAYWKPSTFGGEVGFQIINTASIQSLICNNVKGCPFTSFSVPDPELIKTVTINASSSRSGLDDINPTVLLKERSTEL
Source text: as §1, with “. Because” for “Because”
. Using the methods described above, the inhibition of human COX-2 and ovine COX-1 by desbenzoylindomethacin was measured. […]

prostaglandin synthesis = settings: reported by Shen and Winter 1977; cited from earlier work

melting point [°C]	IC50 (ovine COX-1) [µM]	potency reduced relative to indomethacin (human COX-2; COX-1 and COX-2 purified enzyme assays) [fold]	COX-2 selectivity (IC50 for COX-1/IC50 for COX-2) (human COX-2)	IC50 (human COX-2) [µM]	SMILES	ability to inhibit prostaglandin synthesis (prostaglandin synthesis)
186 to 188					Cc1c(CC(=O)O)c2cc(O)ccc2n1C(=O)c1ccccc1 [compound 5, (1-benzoyl-5-hydroxy-2-methyl-1H-indol-3-yl)acetic acid]	
159 to 161					Cc1c(CC(=O)O)c2cc(O)c(F)cc2n1C(=O)c1ccccc1 [compound 12, (1-benzoyl-6-fluoro-5-hydroxy-2-methyl-1H-indol-3-yl)acetic acid]	
	20	~100	1.6	12	COc1ccc2[nH]c(C)c(CC(=O)O)c2c1 [desbenzoylindomethacin]	
	15		50-150	0.1 to 0.3	Cc1c(CC(=O)O)c2cc(O)ccc2n1C(=O)c1ccc(Cl)cc1 [desmethylindomethacin, 1-(p-Chlorobenzoyl)-5-hydroxy-2-methylindole-3-acetic acid]	some ability to inhibit prostaglandin synthesis
